# Experimental data published in patent US20260092071A1, “COMPOUNDS AND COMPOSITIONS AS SMARCA2/4 DEGRADERS AND USES THEREOF” (REGENTS OF THE UNIVERSITY OF MICHIGAN, priority 2022, published 2026).
# Where two headings read alike, the source gives them in different places.
# Tests used:
# SMARCA2 = SMARCA2 (Homo sapiens, UniProt P51531); assay: HiBiT assay for protein degradation, Hela SMARCA2-HiBiT cells (A series); type: cell-based; set-up: Hela cells were genetically modified via CRISPR/Cas9 to fuse HiBiT to the carboxy terminus of SMARCA2; host or cells: HeLa (CRISPR/Cas9 HiBiT knock-in); conditions: for DC50: read-out: SMARC A2 Hela HiBit DC50; for Dmax: read-out: SMARC A2 Hela HiBit Dmax (%);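 on SMARC A2 Hela HiBit Dmax (%): 24 h compound treatment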
# Sequence of SMARCA2 (P51531 whole entry, the tested form may be a part): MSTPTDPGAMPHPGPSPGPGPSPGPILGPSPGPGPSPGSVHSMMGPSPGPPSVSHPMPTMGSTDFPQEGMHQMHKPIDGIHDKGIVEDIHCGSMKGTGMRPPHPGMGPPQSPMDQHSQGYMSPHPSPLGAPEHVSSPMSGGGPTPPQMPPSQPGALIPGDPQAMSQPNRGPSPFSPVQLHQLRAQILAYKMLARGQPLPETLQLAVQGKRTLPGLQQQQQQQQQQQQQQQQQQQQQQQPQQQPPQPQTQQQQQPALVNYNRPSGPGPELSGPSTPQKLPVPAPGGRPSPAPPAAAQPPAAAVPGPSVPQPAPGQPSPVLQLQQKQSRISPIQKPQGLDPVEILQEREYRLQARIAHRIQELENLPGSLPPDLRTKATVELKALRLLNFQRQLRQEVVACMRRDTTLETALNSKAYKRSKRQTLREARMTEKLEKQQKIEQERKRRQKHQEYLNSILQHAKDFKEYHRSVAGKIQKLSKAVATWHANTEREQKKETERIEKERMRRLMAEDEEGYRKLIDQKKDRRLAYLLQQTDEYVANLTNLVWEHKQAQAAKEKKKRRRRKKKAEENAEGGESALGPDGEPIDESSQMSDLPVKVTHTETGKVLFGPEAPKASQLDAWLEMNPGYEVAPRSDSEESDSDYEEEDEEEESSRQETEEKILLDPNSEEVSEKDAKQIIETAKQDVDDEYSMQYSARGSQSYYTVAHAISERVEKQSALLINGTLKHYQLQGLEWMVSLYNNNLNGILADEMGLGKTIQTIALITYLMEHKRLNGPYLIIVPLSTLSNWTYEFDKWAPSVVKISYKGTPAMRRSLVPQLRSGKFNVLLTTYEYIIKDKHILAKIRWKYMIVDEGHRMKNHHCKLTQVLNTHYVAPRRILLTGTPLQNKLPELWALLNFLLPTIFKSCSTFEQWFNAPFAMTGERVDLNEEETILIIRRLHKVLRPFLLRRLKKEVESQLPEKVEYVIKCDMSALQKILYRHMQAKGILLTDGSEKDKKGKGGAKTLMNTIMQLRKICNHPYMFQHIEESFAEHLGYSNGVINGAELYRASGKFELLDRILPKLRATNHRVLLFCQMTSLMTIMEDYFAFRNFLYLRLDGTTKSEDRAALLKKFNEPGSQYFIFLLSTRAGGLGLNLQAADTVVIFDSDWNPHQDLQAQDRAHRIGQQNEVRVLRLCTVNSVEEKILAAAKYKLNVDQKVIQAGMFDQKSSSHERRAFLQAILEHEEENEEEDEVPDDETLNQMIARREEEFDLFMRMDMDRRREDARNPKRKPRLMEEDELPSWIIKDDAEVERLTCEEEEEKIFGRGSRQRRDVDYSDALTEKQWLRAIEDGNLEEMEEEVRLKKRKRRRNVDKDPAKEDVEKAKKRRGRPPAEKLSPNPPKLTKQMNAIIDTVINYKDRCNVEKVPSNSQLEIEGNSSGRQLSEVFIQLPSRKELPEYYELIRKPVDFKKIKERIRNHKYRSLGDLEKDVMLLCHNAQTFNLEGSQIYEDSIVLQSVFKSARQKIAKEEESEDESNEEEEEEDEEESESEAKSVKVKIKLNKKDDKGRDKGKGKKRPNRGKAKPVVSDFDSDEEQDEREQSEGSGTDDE
# How it was run: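 HeLa cells engineered by CRISPR/Cas9 to carry a HiBiT tag fused to the C-terminus of SMARCA2 (Promega CS302365) were grown in DMEM supplemented with FBS and penicillin-streptomycin. After treatment, remaining SMARCA2 protein was quantified with the Nano-Glo® HiBiT Lytic Detection Assay (Promega N3050), and curves were fitted in GraphPad Prism.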
# SMARCA4 = SMARCA4 (Homo sapiens, UniProt P51532); assay: HiBiT assay for protein degradation, Hela SMARCA4-HiBiT cells (A series); type: cell-based; set-up: fuse HiBiT to the carboxy terminus of SMARCA2 (Promega CS302365) or SMARCA4 (Promega CS3023225); host or cells: HeLa (CRISPR/Cas9 HiBiT knock-in); conditions: for DC50: read-out: SMARC A4 Hela HiBit DC50
# Sequence of SMARCA4 (P51532 whole entry, the tested form may be a part): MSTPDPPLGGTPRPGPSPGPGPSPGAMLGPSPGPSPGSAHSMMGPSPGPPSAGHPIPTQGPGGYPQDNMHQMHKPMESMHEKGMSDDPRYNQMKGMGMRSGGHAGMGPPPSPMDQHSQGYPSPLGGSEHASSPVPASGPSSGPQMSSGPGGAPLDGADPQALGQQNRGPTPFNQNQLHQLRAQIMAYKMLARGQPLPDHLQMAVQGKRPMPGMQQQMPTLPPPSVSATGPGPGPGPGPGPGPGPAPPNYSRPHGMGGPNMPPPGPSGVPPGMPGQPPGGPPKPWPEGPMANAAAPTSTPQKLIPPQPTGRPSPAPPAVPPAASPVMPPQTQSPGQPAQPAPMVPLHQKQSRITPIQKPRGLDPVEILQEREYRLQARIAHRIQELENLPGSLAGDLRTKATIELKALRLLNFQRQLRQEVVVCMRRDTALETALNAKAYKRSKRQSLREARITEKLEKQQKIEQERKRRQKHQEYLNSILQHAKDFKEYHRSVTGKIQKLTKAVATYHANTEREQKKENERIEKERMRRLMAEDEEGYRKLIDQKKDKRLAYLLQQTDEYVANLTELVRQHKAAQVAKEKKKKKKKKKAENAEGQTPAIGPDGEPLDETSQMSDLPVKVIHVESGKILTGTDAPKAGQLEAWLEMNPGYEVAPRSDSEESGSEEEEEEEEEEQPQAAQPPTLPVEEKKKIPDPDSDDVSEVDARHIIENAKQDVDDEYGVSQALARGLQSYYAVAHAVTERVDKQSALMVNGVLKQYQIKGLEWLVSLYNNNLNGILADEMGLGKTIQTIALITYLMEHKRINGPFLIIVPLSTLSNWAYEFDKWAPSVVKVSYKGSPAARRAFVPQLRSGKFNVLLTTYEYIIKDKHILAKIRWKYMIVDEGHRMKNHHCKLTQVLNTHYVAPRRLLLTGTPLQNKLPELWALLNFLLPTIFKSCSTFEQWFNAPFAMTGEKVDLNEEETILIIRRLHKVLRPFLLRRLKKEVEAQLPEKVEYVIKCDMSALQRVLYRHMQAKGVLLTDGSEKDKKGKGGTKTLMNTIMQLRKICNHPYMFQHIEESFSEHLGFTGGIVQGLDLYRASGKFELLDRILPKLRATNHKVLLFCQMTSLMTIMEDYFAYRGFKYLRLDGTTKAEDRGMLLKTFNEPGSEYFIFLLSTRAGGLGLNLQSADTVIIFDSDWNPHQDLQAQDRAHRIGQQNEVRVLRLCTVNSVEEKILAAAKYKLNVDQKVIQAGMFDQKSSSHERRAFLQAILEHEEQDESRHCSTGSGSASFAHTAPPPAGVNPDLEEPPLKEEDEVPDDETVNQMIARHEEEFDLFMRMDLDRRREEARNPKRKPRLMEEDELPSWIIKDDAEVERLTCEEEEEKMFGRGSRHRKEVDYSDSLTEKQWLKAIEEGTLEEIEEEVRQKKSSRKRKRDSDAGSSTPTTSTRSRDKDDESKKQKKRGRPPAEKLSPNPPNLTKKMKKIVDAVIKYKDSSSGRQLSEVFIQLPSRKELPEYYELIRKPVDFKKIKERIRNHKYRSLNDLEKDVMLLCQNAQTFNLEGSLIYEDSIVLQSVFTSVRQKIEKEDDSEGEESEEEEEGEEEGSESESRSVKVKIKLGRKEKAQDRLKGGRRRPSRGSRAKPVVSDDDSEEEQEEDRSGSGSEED
# How it was run: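 HeLa cells engineered by CRISPR/Cas9 to carry a HiBiT tag fused to the C-terminus of SMARCA4 (Promega CS3023225) were grown in DMEM supplemented with FBS and penicillin-streptomycin. After compound exposure, remaining SMARCA4 protein was quantified using the Nano-Glo® HiBiT Lytic Detection Assay (Promega N3050), and curves were fitted in GraphPad Prism.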
# [1] = Hela SMARCA2-HiBiT cells, 24 hours treatment
# [2] = Hela SMARCA4-HiBiT cells, 24 hours treatment
# [3] = Hela SMARCA4-HiBiT cells, 24 hours treatment, read-out: SMARC A4 Hela HiBit Dmax
# [4] = Hela SMARCA4-HiBiT cells, 24 hours treatment, read-out: SMARC A4 Hela HiBit Dmax(%)
Compound,DC50 (SMARCA2; [1]),Dmax (SMARCA2; [1]),DC50 (SMARCA4; [2]),Dmax (SMARCA4; [3]),Dmax (SMARCA4; [4]),Dmax (SMARCA2; HeLa),DC50 (SMARCA2),DC50 (SMARCA4),SMARC A4 Hela HiBit DC50(nM) (SMARCA4; [2])
"COC(=O)C1CN(C[C@H](NC(=O)[C@@H]2C[C@@H](O)CN2C(=O)[C@@H](n2cc([C@H]3CC[C@H](CN4CCC(c5ccc6c(c5)-n5c(nc(=O)c7c(Cl)cccc75)C65CCCCC5)CC4)CC3)nn2)C(C)(C)C)c2ccc(-c3scnc3C)cc2)C1 [Compound A154, methyl 1-((R)-2-((2S,4R)-1-((S)-2-(4-((1r,4S)-4-((4-(4′-chloro-5′-oxo-5′H-spiro[cyclohexane-1,7′-indolo[1,2-a]quinazolin]-10′-yl)piperidin-1-yl)methyl)cyclohexyl)-1H-1,2,3-triazol-1-yl)-3,3-dimethylbutanoyl)-4-hydroxypyrrolidine-2-carboxamido)-2-(4-(4-methylthiazol-5-yl)phenyl)ethyl) azetidine-3-carboxylate]",< 0.01 µM,> 90%,> 1 µM,< 50%,–,–,–,–,–
"Cc1ncsc1-c1ccc([C@H](CCCCCN2CCC(c3ccc4c(c3)C3(CCCC3)c3nc(=O)c5c(Cl)cccc5n3-4)CC2)NC(=O)[C@@H]2C[C@@H](O)CN2C(=O)[C@@H](NC(=O)C2(F)CC2)C(C)(C)C)cc1 [Compound A2, (2S,4R)—N—((S)-6-(4-(4′-chloro-5′-oxo-5′H-spiro[cyclopentane-1,7′-indolo[1,2-a]quinazolin]-9′-yl)piperidin-1-yl)-1-(4-(4-methylthiazol-5-yl)phenyl)hexyl)-1-((S)-2-(1-fluorocyclopropane-1-carboxamido)-3,3-dimethylbutanoyl)-4-hydroxypyrrolidine-2-carboxamide]",< 0.1 µM,> 90%,< 0.1 µM,–,70 to 90%,–,–,–,–
Cc1ncsc1-c1ccc([C@H](C)NC(=O)[C@@H]2C[C@@H](O)CN2C(=O)[C@@H](NC(=O)C23CCC(CN4CCC(c5ccc6c(c5)-n5c(nc(=O)c7c(Br)cccc75)C65CCCCC5)CC4)(CC2)CC3)C(C)(C)C)cc1 [Compound A29],–,–,–,–,< 50%,70 to 90%,< 0.1 µM,> 1 µM,–
"Cc1ncsc1-c1ccc([C@H](C)NC(=O)[C@@H]2C[C@@H](O)CN2C(=O)[C@H](C2CCCCC2)n2cc([C@H]3CC[C@H](CN4CCC(c5ccc6c(c5)-n5c(nc(=O)c7c(Cl)cccc75)C6(C)C)CC4)CC3)nn2)cc1 [Compound A124, (2S,4R)-1-((S)-2-(4-((1r,4S)-4-((4-(4-chloro-7,7-dimethyl-5-oxo-5,7-dihydroindolo[1,2-a]quinazolin-10-yl)piperidin-1-yl)methyl)cyclohexyl)-1H-1,2,3-triazol-1-yl)-2-cyclohexylacetyl)-4-hydroxy-N—((S)-1-(4-(4-methylthiazol-5-yl)phenyl)ethyl)pyrrolidine-2-carboxamide]",< 0.01 µM,> 90%,–,< 50%,–,–,–,–,No fit
"Cc1nc(C)c(-c2ccc([C@H](CN3CCOCC3)NC(=O)[C@@H]3C[C@@H](O)CN3C(=O)[C@@H](n3cc([C@H]4CC[C@H](CN5CCC(c6ccc7c(c6)-n6c(nc(=O)c8c(Cl)cccc86)C76CCCCC6)CC5)CC4)nn3)C(C)(C)C)cc2)o1 [Compound A166, (2S,4R)-1-((S)-2-(4-((1r,4S)-4-((4-(4′-chloro-5′-oxo-5′H-spiro[cyclohexane-1,7′-indolo[1,2-a]quinazolin]-10′-yl)piperidin-1-yl)methyl)cyclohexyl)-1H-1,2,3-triazol-1-yl)-3,3-dimethylbutanoyl)-N—((R)-1-(4-(2,4-dimethyloxazol-5-yl)phenyl)-2-morpholinoethyl)-4-hydroxypyrrolidine-2-carboxamide]",0.01 to 0.1 µM,70 to 90%,> 1 µM,< 50%,–,–,–,–,–
